US6436963B1 (priority 1998, dated 2002)

What was measured:
Type in all cases: in vivo
Erysiphe graminis = experiment: Powdery Mildew of Wheat (ERYSGT), protectant spray test on wheat seedlings; conditions: wheat (cultivar Monon), sprayed to run off at 100 ppm, inoculated after 24 hours
Puccinia recondita = experiment: Brown Rust (PUCCRT), protectant spray test on wheat seedlings; conditions: wheat (cultivar Monon), sprayed to run off at 100 ppm, inoculated after 24 hours
Leptosphaeria nodorum = experiment: Glume Blotch of Wheat (LEPTNO), protectant spray test on wheat seedlings; conditions: wheat (cultivar Monon), sprayed to run off at 100 ppm, inoculated after 24 hours
Phytophthora infestans = conditions: tomatoes (cultivar Rutgers), sprayed to run off at 100 ppm, inoculated after 24 hours

Row | Structure (SMILES) | ERYSGT control of plant disease (Erysiphe graminis) | PUCCRT control of plant disease (Puccinia recondita) | LEPTNO control of plant disease (Leptosphaeria nodorum) | PHYTIN control of plant disease (Phytophthora infestans)
1 | CNC(=O)C(=NOC)c1ccccc1COc1ncc(C(OC(C)=O)c2ccccc2)cc1Cl (stereo not shown) [Example 76] | ++ (++ = 75-100% control of plant disease) | ++ (++ = 75-100% control of plant disease) | ++ (++ = 75-100% control of plant disease) | ++ (++ = 75-100% control of plant disease)
2 | CNC(=O)C(=NOC)c1ccccc1COc1ncc(C(OC(C)=O)c2cccs2)cc1Cl (stereo not shown) [Example 77] | ++ (++ = 75-100% control of plant disease) | ++ (++ = 75-100% control of plant disease) | ++ (++ = 75-100% control of plant disease) | ++ (++ = 75-100% control of plant disease)
3 | CNC(=O)C(=NOC)c1ccccc1COc1ncc(C(OC(C)=O)c2ccc(OC(F)(F)F)cc2)cc1Cl (stereo not shown) [Example 78] | ++ (++ = 75-100% control of plant disease) | ++ (++ = 75-100% control of plant disease) | ++ (++ = 75-100% control of plant disease) | ++ (++ = 75-100% control of plant disease)
4 | CNC(=O)C(=NOC)c1ccccc1COc1ncc(C(OC)c2ccc(OC(F)(F)F)cc2)cc1Cl (stereo not shown) [Example 79] | ++ (++ = 75-100% control of plant disease) | ++ (++ = 75-100% control of plant disease) | ++ (++ = 75-100% control of plant disease) | − (− = 0-24% control of plant disease)
5 | CCCCOC(C)c1cnc(OCc2ccccc2C(=NOC)C(=O)NC)c(Cl)c1 (stereo not shown) [Example 80] | ++ (++ = 75-100% control of plant disease) | ++ (++ = 75-100% control of plant disease) | ++ (++ = 75-100% control of plant disease) | − (− = 0-24% control of plant disease)
6 | CNC(=O)C(=NOC)c1ccccc1COc1ncc(C(O)c2ccccc2C(F)(F)F)cc1Cl (stereo not shown) [Example 81] | ++ (++ = 75-100% control of plant disease) | ++ (++ = 75-100% control of plant disease) | + (+ = 25-74% control of plant disease) | ++ (++ = 75-100% control of plant disease)
7 | CNC(=O)C(=NOC)c1ccccc1COc1ncc(C(OC(C)=O)c2ccccc2F)cc1Cl (stereo not shown) [Example 82] | ++ (++ = 75-100% control of plant disease) | ++ (++ = 75-100% control of plant disease) | ++ (++ = 75-100% control of plant disease) | ++ (++ = 75-100% control of plant disease)
8 | CNC(=O)C(=NOC)c1ccccc1COc1ncc(C(OC(C)=O)c2ccc3ccccc3c2)cc1Cl (stereo not shown) [Example 83] | ++ (++ = 75-100% control of plant disease) | ++ (++ = 75-100% control of plant disease) | ++ (++ = 75-100% control of plant disease) | ++ (++ = 75-100% control of plant disease)
9 | CNC(=O)C(=NOC)c1ccccc1COc1ncc(C(O)c2cccc(C)c2)cc1Cl (stereo not shown) [Example 84] | ++ (++ = 75-100% control of plant disease) | ++ (++ = 75-100% control of plant disease) | − (− = 0-24% control of plant disease) | ++ (++ = 75-100% control of plant disease)
10 | CNC(=O)C(=NOC)c1ccccc1COc1ncc(C(O)c2cccc(C)c2)cc1Cl (stereo not shown) [Example 85] | ++ (++ = 75-100% control of plant disease) | ++ (++ = 75-100% control of plant disease) | ++ (++ = 75-100% control of plant disease) | − (− = 0-24% control of plant disease)
11 | CNC(=O)C(=NOC)c1ccccc1COc1ncc(C(O)(CO)c2ccccc2)cc1Cl (stereo not shown) [Example 86] | − (− = 0-24% control of plant disease) | ++ (++ = 75-100% control of plant disease) | − (− = 0-24% control of plant disease) | ++ (++ = 75-100% control of plant disease)
12 | CNC(=O)C(=NOC)c1ccccc1COc1ncc(C(O)C2CCCCC2)cc1Cl (stereo not shown) [Example 87] | ++ (++ = 75-100% control of plant disease) | ++ (++ = 75-100% control of plant disease) | ++ (++ = 75-100% control of plant disease) | ++ (++ = 75-100% control of plant disease)
13 | CNC(=O)C(=NOC)c1ccccc1COc1ncc(C(OC(C)=O)c2ccccc2C(F)(F)F)cc1Cl (stereo not shown) [Example 88] | ++ (++ = 75-100% control of plant disease) | ++ (++ = 75-100% control of plant disease) | ++ (++ = 75-100% control of plant disease) | ++ (++ = 75-100% control of plant disease)
